Counter-ions that a name gives are not always drawn.
Assays:
PAF induced lethality = PAF induced lethality in mice; type: in vivo; details: I.P. 10 mg/kg; corrected for control lethality
Procedure: PAF given I.V. to mice causes an immediate hypotensive shock leading to death in 1 hour or less. Compounds were given intraperitoneally or P.O. at various times before the PAF challenge. Animals alive after 2 hours were counted and the activity of test compounds expressed as % survival corrected for any control (saline treated) animals which survived the PAF challenge.

LPS induced gut leakage = test: Endotoxin induced hemorragic lesions / LPS induced gut leakage in rats; type: in vivo, rat (male Wistar); details: for % of control leakage (K), IV LPS induced gut leakage: ± SEM; for protection against LPS induced gut damage: IV LPS
Excerpt: One of the main sites of LPS induced pathology in the rat and guinea pig is the gut, particularly the duodenum, small intestine and cecum. After LPS exposure hemorragic lesions develop within a few minutes and can involve most of the lumenal surface. The extent of these pathologies can be quantitated histologically or by measuring the amount of plasma proteins that have leaked into the lumen. The second method is much faster and can detect damage in the junctions between capillary or intestinal epithelial cells before gross lesions have developed. Hot tags have shown plasma leakage after LPS challenge using radiolabeled albumin as the probe. In our assay we have chosen to use a non-radioactive tagging method in which plasma albumin is labeled with Evan's blue dye and the lumenal leakage is determined spectrophotometricly.
Evan's blue dye: Sigma e-2129, made as a 1% w/v solution in saline which was filtered and kept refrigerated.
For each experiment fresh 3-[[3-[[hydroxy[2-methoxy-3-(tetradecyloxy)phenoxy]phosphinyl]oxy]phenyl]- methyl]-5-methyl-thiazolium, hydroxide, inner salt was sonicated into saline.
LPS solutions were made fresh for each experiment.
Male Wistar rats, obtained from Charles River, weighing 160-225 gm were maintained in accordance with ALAC standards for at least one week before use.
Food was withheld from the animals for 18 hours before the experiment to clear the intestine. The rats were dosed with 3-[[3-[[hydroxy[2-methoxy-3-(tetradecyloxy)phenoxy]phosphinyl]oxy]phenyl]methyl]-5-methyl-thiazolium, hydroxide, inner salt or saline ip, 4 ml/kg, 1/2 hour before challenge with 25 or 50 mg/kg LPS in the 1% dye at 10 ml/kg. One hour after the LPS insult the animals were sacrificed and the duodenum and initial 6-7 cm of the jejunum isolated. This segment was lavaged with 2 ml of normal saline with the fluid flowing into polyethylene tubes. The lavageate frequently contained mucous and in order to free the stained albumin the samples were sonicated vigorously and then centrifuged to clarify the fluid. The amount of dye was determined spectrophotometrically, using a Vmax microtiter plate reader using the end point mode at […].

## CCCCCCCCCCCCCCOc1cccc(OP(=O)([O-])Oc2cccc(C[n+]3csc(C)c3)c2)c1OC [3-[[3-[[Hydroxy[2-methoxy-3-(tetradecyloxy)phenoxy]-phosphinyl]oxy]phenyl]methyl]-5-methyl-thiazolium, hydroxide, inner salt]
PAF induced lethality
  PAF induced lethality, % protection: 17%
LPS induced gut leakage; 0.125 mg/kg IP, Experiment 1
  % of control leakage (K), IV LPS induced gut leakage: 24 ± 15%
LPS induced gut leakage; 0.125 mg/kg IP, Experiment 2
  % of control leakage (K), IV LPS induced gut leakage: 107 ± 27%
LPS induced gut leakage; 0.25 mg/kg IP, Experiment 1
  % of control leakage (K), IV LPS induced gut leakage: 36 ± 23%
LPS induced gut leakage; 0.25 mg/kg IP, Experiment 2
  % of control leakage (K), IV LPS induced gut leakage: 65 ± 15%
LPS induced gut leakage; 0.5 mg/kg IP, Experiment 1
  % of control leakage (K), IV LPS induced gut leakage: 15 ± 10%
LPS induced gut leakage; 0.5 mg/kg IP, Experiment 2
  % of control leakage (K), IV LPS induced gut leakage: 16 ± 9%
LPS induced gut leakage; 1 mg/kg IP, Experiment 1
  % of control leakage (K), IV LPS induced gut leakage: 22 ± 15%
LPS induced gut leakage; 2 mg/kg IP, Experiment 1
  % of control leakage (K), IV LPS induced gut leakage: 10 ± 10%
LPS induced gut leakage; 2 mg/kg IP, Experiment 2
  % of control leakage (K), IV LPS induced gut leakage: 18 ± 24%
LPS induced gut leakage; 2 mg/kg IP, Experiment 3
  % of control leakage (K), IV LPS induced gut leakage: 27 ± 11%
LPS induced gut leakage; 20 mg/kg IP, Experiment 1
  % of control leakage (K), IV LPS induced gut leakage: 20 ± 2%
LPS induced gut leakage; 20 mg/kg IP, Experiment 2
  % of control leakage (K), IV LPS induced gut leakage: 19 ± 31%
LPS induced gut leakage; IP
  activity seen at doses as low as: 1/2
  protection against LPS induced gut damage: able to reduce or eliminate the damage produced by IV LPS
LPS induced gut leakage; IP one hour before challenge
  doses as low as (able to reduce or eliminate damage produced by IV LPS): 1/2
LPS induced gut leakage; IP, listed as 3-[[3-[[hydroxy[2-methoxy-3-(tetradecyloxy)phenoxy]-phosphinyl]oxy]phenyl]-methy
  protection against LPS induced gut damage: very potent protection against the end point of gut pathophysiology
LPS induced gut leakage; LPS challenge
  direct observation of the intestinal tract of LPS challenged protected animals: nearly normal appearing guts
LPS induced gut leakage; Rattus norvegicus, ip, read-out: doses as low as (prevents the gut manifestations of endotoxin shock), rats
  minimal effective dose: 0.25 mg/kg
LPS induced gut leakage; virtually all control animals had severe diarrhea
  diarrhea in LPS challenged treated animals: little or none

— patent US5231091A, “Bis-arylphosphate ester antagonists of platelet activating factor” (priority 1992, dated 1993)
